From patent US4629737A, “Secondary amines and use in pharmaceutical compositions” (Beecham Group p.l.c., priority 1982, dated 1986)
Counter-ions that a name gives are not always drawn. Like-named read-outs stand apart in the source and are kept apart here.

Columns and labels:
[1] = test system: platelet aggregation in human whole blood; assay: Collagen-induced platelet aggregation in human whole blood in vitro; format: cell-based; conditions: 3 mins pre-incubation
Description: Collagen-induced platelet aggregation in human whole blood in vitro.
Collagen added to stirred citrated blood causes platelet aggregation. As the platelets aggregate, the concentration of single platelets falls. […] Inhibitors of aggregation, such as aspirin and dipyridamole, reduce the response to collagen.
Blood drawn from volunteers who denied taking aspirin within the previous seven days was mixed with 0.1 vol 129 mM trisodium citrate, dispensed into 0.5 ml aliquots and kept at 25° C. Collagen (Hormon-Chemie, Munich) or 154 mM NaCl (control) was added to each aliquot of blood stirred at 1100 rpm in an aggregometer at 37° C. after 3 mins pre-incubation with compound or appropriate solvent. Aggregates were fixed by addition of 0.5 vol 4.5% formaldehyde or 0.05 vol phosphate-buffered glutaraldehyde. Single platelets were counted electronically. Responses, expressed as percent fall in platelet count, were obtained to a range of collagen concentrations. The concentration producing 50% maximal effect (EC50) was estimated from log10 concentration-response curves. Dose-ratios were calculated by dividing the EC50 obtained in the presence of compound under test by the control EC50.

right atrium = assay: Isolated rat atria screen: rate of spontaneously beating right atrium; set-up: species or system Sprague-Dawley male rats; conditions: for Emax: maximal effect relative to isoprenaline maximum (=1), read-out: Rate i.a. (intrinsic activity)
Description: (§1) Sprague-Dawley male rats (300-400 g) are killed and the right and left atria dissected out independently and mounted on a combined tissue holder/electrode. The tissues are then immersed in a glass bath containing Krebs solution maintained at 32° C. The rate of the spontaneously beating right atrium (via an isometric transducer and a ratemeter) and the tension of the electrically paced left atrium (via an isometric transducer) are recorded on an M19 chart recorder.
(§2) After an initial stabilization period, the tissues are exposed to a maximal concentration of isoprenaline (10^-7 M). The tissues are then washed several times until rate and tension return to baseline level. A dose-response curve to the test compound is then carried out.
(§3) Responses to each concentration of test compound are expressed as a percentage of the maximal responses to isoprenaline. Results are given in the form of (a) intrinsic activity (i.a.) (maximal effect of test compound with respect to isoprenaline maximum, i.e. isoprenaline intrinsic activity=1) and (b) EC50 (the molar concentration at which the test compound produces 50% of its own maximum response).

rat ear = assay: Topical anti-inflammatory activity, croton oil induced rat ear inflammation; format: in vivo; conditions: 1.00 mg/rat ear; 6 h; shown by significant (5% level) reduction in ear weight vs non-drug treated control
Description: The method used is based on that described by G. Tonelli et al (Endocrinology, 77, 625-634, 1965). An inflammation is induced in the rat ear by the application of 50 μl of a 1% solution of croton oil in tetrahydrofuran, test compounds being dissolved in the irritant vehicle. After 6 hours the inflammation is assessed by killing the animals and weighing the ears. Topical anti-inflammatory activity of a compound is generally considered to be shown when a significant (5% level) reduction in ear weight is seen compared to non-drug treated control.

blood glucose = assay: Hypoglycaemic activity: reduction in area under blood glucose curve after glucose load; format: in vivo, Female CFLP mice; conditions: Mus musculus, read-out: % Reduction in area under Blood Glucose Curve
Description: Female CFLP mice, weighing approximately 25 g, were fasted for 24 hours prior to the study. The compounds under study were administered orally as an aqueous solution to each of 6 mice. 30 minutes later a blood sample (10 μl) was obtained from the tail for the analysis of blood glucose. Immediately after taking this blood sample, glucose (1 g/Kg body weight) was administered subcutaneously to each mouse. 6 mice were given water as a control. Blood samples were then obtained from each mouse at 30 minute intervals for 120 minutes.
Compounds that produced a significant (P<0.05) reduction of blood glucose, compared with control mice given water, at any time interval, were considered active. The area under the blood glucose curve over the 2 hour period after the administration of the glucose was calculated for each compound and compared with the value for control animals.

[2] = Effect on energy expenditure of mice; format: in vivo, Female CFLP mice; conditions: Mus musculus; for response vs control in vivo at 21.4 mg/kg / response vs control in vivo at 22.5 mg/kg / response vs control in vivo at 23 mg/kg / response vs control in vivo at 21.3 mg/kg / response vs control in vivo at 22.2 mg/kg: po; for response vs control in vivo at 23.9 mg/kg: 23.9 mg/kg po
Description: Female CFLP mice, each weighing approximately 24 g were given food and water ad lib before and during the experiment. The compounds were dissolved in water by addition of one mole of hydrochloric acid per mole of compound and these solutions were administered orally to each of 12 mice. A further 12 mice were dosed orally with water. The mice were placed in boxes through which air was drawn and the oxygen content of the air leaving the boxes was measured. The energy expenditure of the mice was calculated for 21 hours after dosing from the volume of air leaving the boxes and its oxygen content, following the principles described by J. B. de V. Weir, J. Physiol. (London), 109, 1-9 (1949).

left atrium = assay: Isolated rat atria screen: tension of electrically paced left atrium; set-up: species or system Sprague-Dawley male rats; conditions: for EC50: concentration producing 50% of its own maximum response; for Emax: maximal effect relative to isoprenaline maximum (=1), read-out: Tension i.a. (intrinsic activity)
Description: as §1, §2, §3

[3] = final concentration in whole blood 200 μM
[4] = 3 h, read-out: Mean Energy Expenditure (0-3 h)
[5] = 21 h, read-out: Mean Energy Expenditure (0-21 h)

Question: For `CC(=O)Oc1ccccc1C(=O)O` [Aspirin, reference compound], which “DOSE RATIO (EC50 of collagen with compound / control EC50)” value [1, 3] is on record?
Answer: The value was 2.0 ± 0.1.

Question: Which “DOSE RATIO (EC50 of collagen with compound / control EC50)” value [1, 3] does the source give for `OCCN(CCO)c1nc(N2CCCCC2)c2nc(N(CCO)CCO)nc(N3CCCCC3)c2n1` [Dipyridamole, reference compound] here?
Answer: Its value is 3.7 ± 1.1.

Question: For `COC(=O)COc1ccc(CC(C)NCC(OC)c2cccc(Cl)c2)cc1.Cl` (stereo not drawn) [Example 1, N-[2-(4-Carbomethoxymethoxyphenyl)-1-methylethyl]-2-methoxy-2-(3-chlorophenyl)ethanamine hydrochloride], which Emax (right atrium) is on record?
Answer: Its Emax is 0%.

Question: What about the “DOSE RATIO (EC50 of collagen with compound / control EC50)” value ([1]; final concentration in whole blood 300 μM) of the same compound?
Answer: The value was 6.9.

Question: And the “Topical anti-inflammatory ACTIVITY” value (rat ear)?
Answer: The value was “Active”.

Question: What about the inhibition in vivo at 0.25 µmol/kg (blood glucose; po, 2 h) of the same compound?
Answer: The inhibition in vivo at 0.25 µmol/kg was 47%.

Question: And the response vs control in vivo at 21.4 mg/kg [2, 4]?
Answer: The response vs control in vivo at 21.4 mg/kg was 151%.

Question: And the response vs control in vivo at 21.4 mg/kg [2, 5]?
Answer: Its response vs control in vivo at 21.4 mg/kg is 138%.

Question: And the EC50 (left atrium)?
Answer: The EC50 was 30 µM.

Question: What about the Emax (left atrium) of the same compound?
Answer: The Emax was 30%.

Question: With `CNCCOc1ccc(CC(C)NCC(OC)c2cccc(Cl)c2)cc1` (stereo not drawn) [Example 6, N-[2-(4-(2-Methylaminoethoxy)phenyl)-1-methylethyl]-2-methoxy-2-(3-chlorophenyl)ethanamine dihydrochloride] as the compound, how does the Emax (right atrium) read?
Answer: Its Emax is 0%.

Question: What about the inhibition in vivo at 12.5 µmol/kg (blood glucose; po, 2 h) of the same compound?
Answer: The inhibition in vivo at 12.5 µmol/kg was 55%.

Question: And the response vs control in vivo at 22.5 mg/kg [2, 4]?
Answer: The response vs control in vivo at 22.5 mg/kg was 154%.

Question: What about the response vs control in vivo at 22.5 mg/kg [2, 5] of the same compound?
Answer: The response vs control in vivo at 22.5 mg/kg was 126%.

Question: And the Emax (left atrium)?
Answer: Its Emax is 0%.

Question: Which EC50 (right atrium; concentration producing 50% of its own maximum response) does the source give for `CNC(=O)COc1ccc(CC(C)NCC(OC)c2cccc(C(F)(F)F)c2)cc1` (stereo not drawn) [Example 7, N-[2-(4-Methylaminocarbonylmethoxyphenyl)-1-methylethyl]-2-methoxy-2-(3-trifluoromethylphenyl)ethanamine hydrochloride] here?
Answer: Its EC50 is 1.5 µM.

Question: And the Emax (right atrium)?
Answer: Its Emax is 6%.

Question: What about the inhibition in vivo at 2.5 µmol/kg (blood glucose; po, 2 h) of the same compound?
Answer: Its inhibition in vivo at 2.5 µmol/kg is 32%.

Question: And the response vs control in vivo at 23 mg/kg [2, 4]?
Answer: The response vs control in vivo at 23 mg/kg was 143%.

Question: And the response vs control in vivo at 23 mg/kg [2, 5]?
Answer: The response vs control in vivo at 23 mg/kg was 123%.

Question: And the EC50 (left atrium)?
Answer: The EC50 was 36 µM.

Question: And the Emax (left atrium)?
Answer: The Emax was 23%.

Question: For `CCCOC(CNC(C)Cc1ccc(OCCNC)cc1)c1cccc(Cl)c1` (stereo not drawn) [Example 29, N-[2-(4-(2-Methylaminoethoxy)phenyl)-1-methylethyl]-2-^n propoxy-2-(3-chlorophenyl)ethanamine dihydrochloride], which “DOSE RATIO (EC50 of collagen with compound / control EC50)” value ([1]; final concentration in whole blood 100 μM) is on record?
Answer: The value was 10.8.

Question: And the “Topical anti-inflammatory ACTIVITY” value (rat ear)?
Answer: The value was “Active”.

Question: And the inhibition in vivo at 25 µmol/kg (blood glucose; 25 μmol/Kg oral, 2 h after glucose 1 g/Kg s.c., vs control)?
Answer: The inhibition in vivo at 25 µmol/kg was 43%.

Question: And the response vs control in vivo at 23.9 mg/kg ([2]; 0-3 h, read-out: Mean Energy Expenditure (0-3 h))?
Answer: The response vs control in vivo at 23.9 mg/kg was 144%.

Question: What about the response vs control in vivo at 23.9 mg/kg ([2]; 0-21 h, read-out: Mean Energy Expenditure (0-21 h)) of the same compound?
Answer: Its response vs control in vivo at 23.9 mg/kg is 118%.

Question: For `COC(=O)/C=C/c1ccc(CC(C)NCC(OC)c2cccc(Cl)c2)cc1` (stereo not drawn) [Example 47, N-[2-(4-{[E]-2-Carbomethoxyethenyl}phenyl)-1-methylethyl]-2-methoxy-2-(3-chlorophenyl)ethanamine hydrochloride], which inhibition in vivo at 12.5 µmol/kg (blood glucose; po, 2 h) is on record?
Answer: The inhibition in vivo at 12.5 µmol/kg was 41%.

Question: What about the response vs control in vivo at 21.3 mg/kg [2, 4] of the same compound?
Answer: Its response vs control in vivo at 21.3 mg/kg is 130%.

Question: And the response vs control in vivo at 21.3 mg/kg [2, 5]?
Answer: The response vs control in vivo at 21.3 mg/kg was 109%.

Question: With `COC(CNC(C)Cc1ccc(OCCO)cc1)c1cccc(Cl)c1` (stereo not drawn) [Example 48, N-[2-{4-(2-Hydroxyethoxy)phenyl}-1-methylethyl]-2-methoxy-2-(3-chlorophenyl)ethanamine hydrobromide] as the compound, how does the inhibition in vivo at 0.5 µmol/kg (blood glucose; po, 2 h) read?
Answer: Its inhibition in vivo at 0.5 µmol/kg is 31%.

Question: And the response vs control in vivo at 22.2 mg/kg [2, 4]?
Answer: Its response vs control in vivo at 22.2 mg/kg is 128%.

Question: And the response vs control in vivo at 22.2 mg/kg [2, 5]?
Answer: Its response vs control in vivo at 22.2 mg/kg is 131%.
